Assays:
Staphylococcus aureus = test: GST (germicidal spray test) AOAC 961.02 micro-efficacy of cleaning compositions; format: cell-based; conditions: 0.3 wt % alkylated amino acid, balance water, pH about 7, contact time 7 minutes; for GST efficacy in Cleaning Composition 1: 1 wt % lauryl amine oxide, 0.5 wt % butyl levulinate; for GST efficacy in Cleaning Composition 3: 1 wt % alkyl polyglucoside
Description: A number of tests were conducted for Cleaning Compositions 1-3 including different alkylated amino acids as set forth in Tables 1 and 2 as described herein. Tests were conducted using GST (germicidal spray test) testing method AOAC 961.02 for micro-efficacy (i.e., ability to kill bacteria) against Staphylococcus aureus. The contact time in the test method was 7 minutes, and the neutralizer utilized was Letheen Broth+0.07% Lecithin+0.5% Tween 80.

[1] = Stability of alkylated amino acid in cleaning composition 1 by HPLC-UV peak area vs t=0; format: physicochemical; conditions: HPLC-UV peak area relative to t=0; for % at t = 4 w (70° F.): 4 weeks; for % at t = 4 w (70° F.) / % at t = 8 w (70° F.): 70° F. (21° C.); for % at t = 8 w (70° F.) / % at t = 8 w (100° F.): 8 weeks; for % at t = 8 w (100° F.): 100° F. (38° C.)
Description: The cleaning compositions were prepared using the formulation previously described herein as cleaning composition 1, where each tested cleaning composition was comprised of the following: 0.3 wt % alkylated amino acid, 1 wt % surfactant (lauryl amine oxide), 0.5 wt % fragrance (butyl levulinate), and balance water (about 98.2 wt % water).
The stability tests were tested for amino acid stability at different temperatures, 70° F. (21° C.) and 100° F. (38° C.), over the following periods of time: 4 weeks (4w) and 8 weeks (8w). The samples tested were subjected to HPLC-UV analysis, and the peak areas of the plotted data corresponding to the alkylated amino acids in the samples at 4w and 8w were compared with the reference (sample at t=0) to obtain a percentage value (based upon measured area at different times divided by measured area of reference, t=0).
Percentage values of 70% or greater indicate adequate stability of the alkylated amino acids within the cleaning compositions over the 4 and 8 week time periods and at the given temperatures, where increasing percentage values (e.g., above 85%, 90% or even at or greater than 100%) indicate very stable cleaning compositions with little or no degradation of the alkylated amino acids within the compositions.

% at t = 4 w (70° F.) [1]	% at t = 8 w (70° F.) [1]	% at t = 8 w (100° F.) [1]	SMILES	GST efficacy in Cleaning Composition 1 (Staphylococcus aureus)	GST efficacy in Cleaning Composition 2 (Staphylococcus aureus)	GST efficacy in Cleaning Composition 3 (Staphylococcus aureus)
80%	71%	27%	CCCCCCCCCCCC(=O)NC(CCCNC(=N)N)C(=O)OCC (stereo not shown) [Example 1]	>99.999%	>99.999%	–
100%	100%	100%	CCCCCCCCCCCCNC(CCCNC(=N)N)C(=O)O (stereo not shown) [Example 2]	>99.999%	>99.999%	–
106%	112%	81%	CCCCCCCCCCCCNC(=O)C(N)CCCNC(=N)N (stereo not shown) [Example 4]	>99.999%	>99.999%	–
–	–	–	CCCCCCCCCCCCNC(CCCNC(=N)N)C(=O)OCC (stereo not shown) [Example 5]	>99.999%	>99.999%	–
88%	79%	37%	CCCCCCCCCCCC(=O)NC(CCCCN)C(=O)OCC (stereo not shown) [Example 16]	>99.999%	>99.999%	–
90%	102%	102%	CCCCCCCCCCCCNC(CCCCN)C(=O)O (stereo not shown) [Example 17]	>99.999%	>99.999%	–
97%	89%	62%	CCCCCCCCCCCCNC(=O)C(N)CCCCN (stereo not shown) [Example 20]	>99.999%	>99.999%	–
13%	4%	0%	CCCCCCCCCCCC(=O)NCCCCC(N)C(=O)OCC (stereo not shown) [Example 21]	>99.999%	>99.999%	–
8%	0%	0%	CCCCCCCCCCCCNCC(=O)OCC [Example 60]	>99.999%	–	–
0%	0%	0%	CCCCCCCCCCCCOC(=O)CN [Example 61]	>99.999%	–	>99.8%
90%	87%	59%	CCCCCCCCCCCCNC(=O)CN [Example 62]	>99.999%	–	>99.999%
93%	85%	89%	CCCCCCCCCCCCNC(CC(C)C)C(=O)OCC (stereo not shown) [Example 80]	99.99%	99.4%	–
64%	36%	5%	CCCCCCCCCCCCOC(=O)C(N)CC(C)C (stereo not shown) [Example 81]	>99.999%	95.3%	>99.8%
90%	100%	93%	CCCCCCCCCCCCNC(=O)C(C)CC(C)C (stereo not shown) [Example 82]	>99.999%	–	>99.999%
93%	91%	74%	CCCCCCCCCCCCNC(Cc1ccccc1)C(=O)OCC (stereo not shown) [Example 88]	99.999%	–	–
82%	63%	12%	CCCCCCCCCCCCOC(=O)C(N)Cc1ccccc1 (stereo not shown) [Example 89]	99.999%	99.5%	99.6%
104%	101%	96%	CCCCCCCCCCCCNC(=O)C(N)Cc1ccccc1 (stereo not shown) [Example 90]	>99.999%	–	>99.999%
99%	59%	57%	CCCCCCCCCCCCNC(Cc1ccc(O)cc1)C(=O)OCC (stereo not shown) [Example 92]	99.99%	–	–
75%	56%	8%	CCCCCCCCCCCCOC(=O)C(N)Cc1ccc(O)cc1 (stereo not shown) [Example 93]	>99.999%	99.9%	99.4%
98%	94%	86%	CCCCCCCCCCCCNC(=O)C(N)Cc1ccc(O)cc1 (stereo not shown) [Example 94]	>99.999%	–	>99.999%
94%	87%	35%	CCCCCCCCCCCCNC(Cc1c[nH]c2ccccc12)C(=O)OCC (stereo not shown) [Example 96]	99.999%	–	–
92%	73%	6%	CCCCCCCCCCCCOC(=O)C(N)Cc1c[nH]c2ccccc12 (stereo not shown) [Example 97]	>99.999%	–	–
118%	135%	121%	CCCCCCCCCCCCNC(=O)C(N)Cc1c[nH]c2ccccc12 (stereo not shown) [Example 98]	>99.999%	–	99.4%

SMILES	% at t = 4 w (70° F.) [1]	% at t = 8 w (70° F.) [1]	% at t = 8 w (100° F.) [1]	GST efficacy in Cleaning Composition 1 (Staphylococcus aureus)	GST efficacy in Cleaning Composition 2 (Staphylococcus aureus)	GST efficacy in Cleaning Composition 3 (Staphylococcus aureus)
CCCCCCCCCCCCNCCCCC(N)C(=O)O (stereo not shown) [Example 22]	100%	150%	146%	>99.999%	>99.999%	–
